# Measured values from US11999699B2, “Substituted pyrazole amides” (GRUENENTHAL GMBH, priority 2021, dated 2024).
# Target: T1, human NaV1.8 (Homo sapiens, UniProt Q9Y5Y9)
# T1 construct: The following NaV1.8 recombinant cell line was used for recordings: HEK-NaV1.8 (NM 006514.1); expressed in transfected cells; host or cells: HEK (recombinant cell line HEK-NaV1.8)
# Assay: Electrophysiology: automated whole-cell voltage-clamp (patch clamp, Qube384) recordings of sodium currents in HEK-NaV1.8 cells
# Type: cell-based
# Conditions: potency data either taken from inactivated or resting state, read-out: Potency category (human NaV1.8 IC50)
# Protocol: Electrophysiology: Voltage-Clamp Recordings
# The following NaV1.8 recombinant cell line was used for recordings: HEK-NaV1.8 (NM 006514.1) with in (NM 018400.3).
# Sodium currents were measured using the patch clamp technique in the whole-cell configuration using the Qube384 (Sophion A/S, Copenhagen, Denmark) automated voltage clamp platform. “Multi hole” plates were used for the cell line expressing NaV1.8 while “single hole” plates were used for the recombinant cell lines expressing the other subtypes. Appropriate filters (for minimum seal resistance and minimum current size) and series resistance compensation (for high quality sodium channel recordings) were applied. Data was collected at ambient room temperature.
# The recording extracellular solution contained (in mM): NaCl 145 mM, KCl 4 mM, CaCl2 2 mM, MgCl2 1 mM, HEPES 10 mM, Glucose 10 mM, pH 7.4 (NaOH). The intracellular recording solution contained (in mM): CsF 120 mM, CsCl 20 mM, NaCl 10 mM, EGTA 10 mM, HEPES 10 mM, pH 7.2 (CsOH). Currents were recorded at 25 kHz sampling frequency and filtered at 5 kHz. Series resistance compensation was applied at 65%.
# Vehicle (VEH) is the control condition where cells are exposed to 0.3% DMSO without compound. All runs include VEH controls being exposed to the same voltage protocols to assess non-compound related phenomena such as run down and then used to isolate compound dependent effects on currents.
# To check for state-dependence inhibition, the following voltage-sequence was applied every 20 seconds:
# From a resting membrane potential of −120 mV, the first test pulse (P1; 20 ms to −10 mV) was applied to check for channels in the Resting State followed by a brief recovery (20 ms to −120 mV), then holding the membrane voltage to V112 (4 seconds at voltage to obtain half the channel at Rest and half Inactivated) with a subsequent second test pulse (P2; 20 ms to −10 mV) to check for channels in the Inactivated State, followed by another brief recovery (20 ms to −120 mV) and a final third test pulse (P3; 20 ms to −10 mV) to check for recovered channels.
# To check for frequency-dependent inhibition, a 10 Hz protocol and a 20 Hz protocol were applied; namely,
# From a resting membrane potential of −120 mV, 40-pulses (10 ms to −10 mV) was applied at 10 Hz (at 100 ms between pulses) and then at 20 Hz (at 50 ms between pulses).
# Each parameter was recorded (P1, P2, P3, P40 from 10 Hz and P40 from 20 Hz) during a control period (lasting 5 minutes) when establishing the baseline and during compound period (lasting ˜12 minutes) when test compound (or vehicle) was applied. For each parameter, the value at the end of the compound period was normalized to the vehicle baseline; as follows
# To adjust for any variance in the Na^+ current signal during the compound period (owing to cumulative inactivation independent of compound or shifts in biophysics over time), a dedicated segment of the recording wells in each 384 plate were dedicated to having only vehicle exposure. These vehicle-only recordings were used to correct for any apparent “run-up” or “run-down” in the experiment.
# The adjusted inhibition was calculated as follows: […]
# Percent inhibition was determined and IC50 values were calculated using a 4 parameter logistic model within XLFit Software (IDBS, Boston MA):
# [formula] where A and B are the maximal and minimum inhibition respectively, C is the IC50 concentration and D is the (Hill) slope.
# The potency data was either taken from inactivated or resting state.
# T1 sequence (Q9Y5Y9 whole entry): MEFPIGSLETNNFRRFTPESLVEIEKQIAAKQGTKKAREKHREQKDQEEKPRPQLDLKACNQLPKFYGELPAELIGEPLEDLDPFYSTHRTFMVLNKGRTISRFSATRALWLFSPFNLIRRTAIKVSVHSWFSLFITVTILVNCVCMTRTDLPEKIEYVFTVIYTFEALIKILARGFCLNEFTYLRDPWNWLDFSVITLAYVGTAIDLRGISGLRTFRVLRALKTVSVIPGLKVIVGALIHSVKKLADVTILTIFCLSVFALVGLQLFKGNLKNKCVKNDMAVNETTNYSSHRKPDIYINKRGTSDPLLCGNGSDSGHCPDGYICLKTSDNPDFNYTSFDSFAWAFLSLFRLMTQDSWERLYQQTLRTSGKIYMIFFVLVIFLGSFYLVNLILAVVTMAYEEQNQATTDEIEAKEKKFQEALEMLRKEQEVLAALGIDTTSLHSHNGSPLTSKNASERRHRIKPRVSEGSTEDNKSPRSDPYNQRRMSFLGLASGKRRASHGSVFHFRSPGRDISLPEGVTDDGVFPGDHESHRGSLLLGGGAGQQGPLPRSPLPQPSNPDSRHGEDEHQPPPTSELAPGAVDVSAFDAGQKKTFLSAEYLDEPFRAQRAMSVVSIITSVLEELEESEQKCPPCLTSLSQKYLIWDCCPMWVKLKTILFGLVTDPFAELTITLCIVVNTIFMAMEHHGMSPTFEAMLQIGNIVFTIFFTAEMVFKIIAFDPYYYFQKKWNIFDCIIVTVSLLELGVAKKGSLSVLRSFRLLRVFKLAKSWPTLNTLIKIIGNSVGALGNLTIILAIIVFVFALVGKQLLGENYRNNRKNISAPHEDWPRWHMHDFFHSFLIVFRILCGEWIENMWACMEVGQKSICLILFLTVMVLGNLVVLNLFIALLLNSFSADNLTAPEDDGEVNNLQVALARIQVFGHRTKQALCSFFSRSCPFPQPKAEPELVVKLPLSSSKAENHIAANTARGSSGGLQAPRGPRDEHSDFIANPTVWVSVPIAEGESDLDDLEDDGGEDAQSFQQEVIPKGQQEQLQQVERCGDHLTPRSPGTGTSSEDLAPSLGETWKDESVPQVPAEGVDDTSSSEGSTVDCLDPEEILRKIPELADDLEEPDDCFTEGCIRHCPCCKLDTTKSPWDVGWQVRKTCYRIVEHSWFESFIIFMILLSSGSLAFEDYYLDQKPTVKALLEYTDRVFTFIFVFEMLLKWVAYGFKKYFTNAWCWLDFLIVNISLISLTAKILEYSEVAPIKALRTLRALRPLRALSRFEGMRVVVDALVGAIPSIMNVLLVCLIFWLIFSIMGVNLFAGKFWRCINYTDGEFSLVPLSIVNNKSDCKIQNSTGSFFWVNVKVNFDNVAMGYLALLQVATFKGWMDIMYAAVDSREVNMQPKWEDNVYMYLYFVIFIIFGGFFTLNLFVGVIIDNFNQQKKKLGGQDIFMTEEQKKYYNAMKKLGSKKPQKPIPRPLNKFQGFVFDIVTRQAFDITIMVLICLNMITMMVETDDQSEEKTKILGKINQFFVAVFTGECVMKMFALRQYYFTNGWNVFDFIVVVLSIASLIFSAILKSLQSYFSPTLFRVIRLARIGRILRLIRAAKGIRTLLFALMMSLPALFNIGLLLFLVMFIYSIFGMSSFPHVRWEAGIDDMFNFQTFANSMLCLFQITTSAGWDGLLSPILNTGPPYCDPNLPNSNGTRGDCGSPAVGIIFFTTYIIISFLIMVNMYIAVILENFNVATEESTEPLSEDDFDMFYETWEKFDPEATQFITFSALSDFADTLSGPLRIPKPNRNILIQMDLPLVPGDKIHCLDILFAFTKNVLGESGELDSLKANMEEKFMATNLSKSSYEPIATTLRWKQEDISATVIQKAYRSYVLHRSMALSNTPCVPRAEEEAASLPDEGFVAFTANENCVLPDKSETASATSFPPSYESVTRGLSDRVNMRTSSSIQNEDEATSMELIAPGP
# T1 sequence (Q9NY72 23-215 partner): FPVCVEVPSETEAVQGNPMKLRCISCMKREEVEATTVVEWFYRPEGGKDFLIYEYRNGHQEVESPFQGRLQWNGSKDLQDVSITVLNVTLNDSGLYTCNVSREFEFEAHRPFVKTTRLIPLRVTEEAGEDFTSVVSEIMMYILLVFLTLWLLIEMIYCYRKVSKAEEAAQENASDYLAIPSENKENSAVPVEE
row,IC50 [nM],Structure (SMILES)
1,100 to 1000,"CS(=O)(=O)c1cccc(NC(=O)c2c(C(F)(F)F)cnn2CC2CCCC2)c1 [SC-25, 2-(cyclopentylmethyl)-N-(3-methylsulfonylphenyl)-4-(trifluoromethyl)pyrazole-3-carboxamide]"
2,≤ 100,"CS(=O)(=O)c1cccc(NC(=O)c2c(C(F)(F)F)cnn2CC2CCCCC2)c1 [SC-26, 2-(cyclohexylmethyl)-N-(3-methylsulfonylphenyl)-4-(trifluoromethyl)pyrazole-3-carboxamide]"
3,≤ 100,"CS(=O)(=O)c1cccc(NC(=O)c2c(C(F)(F)F)cnn2CC2CCCCCC2)c1 [SC-27, 2-(cycloheptylmethyl)-N-(3-methylsulfonylphenyl)-4-(trifluoromethyl)pyrazole-3-carboxamide]"
4,1000 to 10000,"CS(=O)(=O)c1cccc(NC(=O)c2c(C(F)(F)F)cnn2CC2CCOCC2)c1 [SC-28, N-(3-methylsulfonylphenyl)-2-(oxan-4-ylmethyl)-4-(trifluoromethyl)pyrazole-3-carboxamide]"
5,100 to 1000,"CC(C1CCCCC1)n1ncc(C(F)(F)F)c1C(=O)Nc1cccc(S(C)(=O)=O)c1 (stereo not drawn) [SC-29, 2-(1-cyclohexylethyl)-N-(3-methylsulfonylphenyl)-4-(trifluoromethyl)pyrazole-3-carboxamide]"
6,100 to 1000,"O=C(Nc1cc[nH]c(=O)c1)c1c(C(F)(F)F)cnn1CC1CCCCC1 [SC-30, 1-(cyclohexylmethyl)-N-(2-oxo-1,2-dihydropyridin-4-yl)-4-(trifluoromethyl)-1H-pyrazole-5-carboxamide]"
7,100 to 1000,"O=C(Nc1ccnc(O)c1)c1c(C(F)(F)F)cnn1CC1CCCCCC1 [SC-31, 2-(cycloheptylmethyl)-N-(2-hydroxypyridin-4-yl)-4-(trifluoromethyl)pyrazole-3-carboxamide]"
8,1000 to 10000,"CC(C1CCCCC1)n1ncc(C(F)(F)F)c1C(=O)Nc1ccnc(O)c1 (stereo not drawn) [SC-32, 2-(1-cyclohexylethyl)-N-(2-hydroxypyridin-4-yl)-4-(trifluoromethyl)pyrazole-3-carboxamide]"
9,≤ 100,"NS(=O)(=O)c1cccc(NC(=O)c2c(C(F)(F)F)cnn2CC2CCCCC2)c1 [SC-33, 2-(cyclohexylmethyl)-N-(3-sulfamoylphenyl)-4-(trifluoromethyl)pyrazole-3-carboxamide]"
10,≤ 100,"NC(=O)c1cc(NC(=O)c2c(C(F)(F)F)cnn2CC2CCCCC2)ccc1F [SC-35, N-(3-carbamoyl-4-fluorophenyl)-1-(cyclohexylmethyl)-4-(trifluoromethyl)-1H-pyrazole-5-carboxamide]"
11,100 to 1000,"CS(=O)(=O)n1cc(NC(=O)c2c(C(F)(F)F)cnn2CC2CCCCC2)cn1 [SC-36, 2-(cyclohexylmethyl)-N-(1-methylsulfonylpyrazol-4-yl)-4-(trifluoromethyl)pyrazole-3-carboxamide]"
12,1000 to 10000,"Cc1cnn(CC2CCCCC2)c1C(=O)Nc1cccc(S(C)(=O)=O)c1 [SC-37, 2-(cyclohexylmethyl)-4-methyl-N-(3-methylsulfonylphenyl)pyrazole-3-carboxamide]"
13,100 to 1000,"CS(=O)(=O)c1cccc(NC(=O)c2cc(C#N)nn2CC2CCCCC2)c1 [SC-38, 5-cyano-2-(cyclohexylmethyl)-N-(3-methylsulfonylphenyl)pyrazole-3-carboxamide]"
14,100 to 1000,"NC(=O)c1cc(NC(=O)c2c(C(F)(F)F)cnn2CC2CCC(F)(F)CC2)ccc1F [SC-39, N-(3-carbamoyl-4-fluorophenyl)-2-[(4,4-difluorocyclohexyl)methyl]-4-(trifluoromethyl)pyrazole-3-carboxamide]"

# Continued, compound first:
row,Structure (SMILES),IC50 [nM]
1,"CS(=O)(=O)c1cccc(NC(=O)c2c(F)cnn2CC2CCCCC2)c1 [SC-08, 2-(cyclohexylmethyl)-4-fluoro-N-(3-methylsulfonylphenyl)pyrazole-3-carboxamide]",1000 to 10000
2,"CS(=O)(=O)c1cccc(NC(=O)c2cc(C(F)F)nn2CC2CCCCC2)c1 [SC-09, 1-(cyclohexylmethyl)-3-(difluoromethyl)-N-(3-(methylsulfonyl)phenyl)-1H-pyrazole-5-carboxamide]",100 to 1000
3,"CS(=O)(=O)c1cccc(NC(=O)c2c(C#N)cnn2CC2CCCCC2)c1 [SC-10, 4-cyano-1-(cyclohexylmethyl)-N-(3-(methylsulfonyl)phenyl)-1H-pyrazole-5-carboxamide]",100 to 1000
4,"Cc1cc(C(=O)Nc2cccc(S(C)(=O)=O)c2)n(CC2CCCCC2)n1 [SC-11, 2-(cyclohexylmethyl)-5-methyl-N-(3-methylsulfonylphenyl)pyrazole-3-carboxamide]",1000 to 10000
5,"CS(=O)(=O)c1cccc(NC(=O)c2cc(C3CC3)nn2CC2CCCCC2)c1 [SC-12, 2-(cyclohexylmethyl)-5-cyclopropyl-N-(3-methylsulfonylphenyl)pyrazole-3-carboxamide]",100 to 1000
6,"CS(=O)(=O)c1cc(NC(=O)c2c(C(F)(F)F)cnn2CC2CCC(F)(F)CC2)ccc1F [SC-13, 2-[(4,4-difluorocyclohexyl)methyl]-N-(4-fluoro-3-methylsulfonylphenyl)-4-(trifluoromethyl)pyrazole-3-carboxamide]",100 to 1000
7,"CS(=O)(=O)c1cc(NC(=O)c2c(C(F)(F)F)cnn2CC2CCC(F)(F)CC2)ccn1 [SC-14, 2-[(4,4-difluorocyclohexyl)methyl]-N-(2-methylsulfonylpyridin-4-yl)-4-(trifluoromethyl)pyrazole-3-carboxamide]",1000 to 10000
8,"CS(=O)(=O)c1cncc(NC(=O)c2c(C(F)(F)F)cnn2CC2CCC(F)(F)CC2)c1 [SC-15, 2-[(4,4-difluorocyclohexyl)methyl]-N-(5-methylsulfonylpyridin-3-yl)-4-(trifluoromethyl)pyrazole-3-carboxamide]",1000 to 10000
9,"CS(=O)(=O)c1cccc(NC(=O)c2c(C(F)(F)F)cnn2CC2CCC(F)(F)CC2)c1F [SC-16, 2-[(4,4-difluorocyclohexyl)methyl]-N-(2-fluoro-3-methylsulfonylphenyl)-4-(trifluoromethyl)pyrazole-3-carboxamide]",1000 to 10000
10,"COc1cc(C(=O)Nc2cccc(S(C)(=O)=O)c2)n(CC2CCCCC2)n1 [SC-17, 2-(cyclohexylmethyl)-5-methoxy-N-(3-methylsulfonylphenyl)pyrazole-3-carboxamide]",100 to 1000
11,"CC(C)c1cnn(CC2CCCCC2)c1C(=O)Nc1cccc(S(C)(=O)=O)c1 [SC-18, 2-(cyclohexylmethyl)-N-(3-methylsulfonylphenyl)-4-propan-2-ylpyrazole-3-carboxamide]",1000 to 10000
12,"CS(=O)(=O)c1cccc(NC(=O)c2c(C3CC3)cnn2CC2CCCCC2)c1 [SC-19, 2-(cyclohexylmethyl)-4-cyclopropyl-N-(3-methylsulfonylphenyl)pyrazole-3-carboxamide]",100 to 1000
13,"NC(=O)c1ccc(NC(=O)c2c(C(F)(F)F)cnn2CC2CCC(F)(F)CC2)cc1F [SC-21, N-(4-carbamoyl-3-fluorophenyl)-1-[(4,4-difluorocyclohexyl)methyl]-4-(trifluoromethyl)-1H-pyrazole-5-carboxamide]",1000 to 10000
14,"CS(=O)(=O)c1ccc(F)c(NC(=O)c2c(C(F)(F)F)cnn2CC2CCC(F)(F)CC2)c1 [SC-22, 1-[(4,4-difluorocyclohexyl)methyl]-N-(2-fluoro-5-methanesulfonylphenyl)-4-(trifluoromethyl)-1H-pyrazole-5-carboxamide]",1000 to 10000
15,"CS(=O)(=O)c1cccc(NC(=O)c2c(C(F)(F)F)cnn2CC2CCCC(F)(F)C2)c1 (stereo not drawn) [SC-23, 2-[(3,3-difluorocyclohexyl)methyl]-N-(3-methylsulfonylphenyl)-4-(trifluoromethyl)pyrazole-3-carboxamide]",100 to 1000
16,"CS(=O)(=O)c1cccc(NC(=O)c2c(C(F)(F)F)cnn2CC2CCC2)c1 [SC-24, 2-(cyclobutylmethyl)-N-(3-methylsulfonylphenyl)-4-(trifluoromethyl)pyrazole-3-carboxamide]",100 to 1000
